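96-well plates; 48 h exposure; 5 concentrations. Endpoints by linear interpolation between flanking doses. Not reached: highest tested concentration assigned. GI50 is the concentration that inhibits growth by half.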 The source made the active and inactive calls. Cut-off read from the data, not from the text of the source: active = GI50 up to about 1.1 µM and inactive = higher.
How the values were obtained:
Assay in all cases: inhibition of tumour cell growth, NCI panel, 48 h
UACC-257 = tested on: UACC-257
NCI-H226 = tested on: NCI-H226
MDA-MB-231 = tested on: MDA-MB-231
DU-145 = tested on: DU-145
A549 = tested on: A549
SF-295 = tested on: SF-295
SK-MEL-5 = tested on: SK-MEL-5
SNB-19 = tested on: SNB-19
KM12 = tested on: KM12
OVCAR-5 = tested on: OVCAR-5
SNB-75 = tested on: SNB-75
RXF 393 = tested on: RXF 393
NCI-H522 = tested on: NCI-H522
SR = tested on: SR
SF-539 = tested on: SF-539
HCC 2998 = tested on: HCC 2998
NCI/ADR-RES = tested on: NCI/ADR-RES
NCI-H460 = tested on: NCI-H460
HCT-15 = tested on: HCT-15
NCI-H23 = tested on: NCI-H23

SMILES	GI50 (UACC-257)	GI50 (NCI-H226)	GI50 (MDA-MB-231)	GI50 (DU-145)	GI50 (A549)	GI50 (SF-295)	GI50 (SK-MEL-5)	GI50 (SNB-19)	GI50 (KM12)	GI50 (OVCAR-5)	GI50 (SNB-75)	GI50 (RXF 393)	GI50 (NCI-H522)	GI50 (SR)	GI50 (SF-539)	GI50 (HCC 2998)	GI50 (NCI/ADR-RES)	GI50 (NCI-H460)	GI50 (HCT-15)	GI50 (NCI-H23)
COC1=CC(=O)C(O)=C(C[C@@]2(C)[C@@H]3CCC[C@H](COC(=O)CCCCCNC(=O)OC(C)(C)C)[C@@]3(C)CC[C@@H]2C)C1=O	> 10 µM (inactive)	8.45 µM (inactive)	> 10 µM (inactive)	> 10 µM (inactive)	3.59 µM (inactive)	5.28 µM (inactive)	3.77 µM (inactive)	3.77 µM (inactive)	> 10 µM (inactive)	> 10 µM (inactive)	5.11 µM (inactive)	3.67 µM (inactive)	3.05 µM (inactive)	5.22 µM (inactive)	–	–	–	–	–	–
COCCCN(Cc1cc(OC)c(OC)c(OC)c1)C(=S)Nc1cccc(Cl)c1	19.6 µM (inactive)	–	26 µM (inactive)	37.7 µM (inactive)	29 µM (inactive)	31.8 µM (inactive)	13.9 µM (inactive)	43.7 µM (inactive)	23.1 µM (inactive)	20.8 µM (inactive)	25.3 µM (inactive)	26.8 µM (inactive)	–	–	42.8 µM (inactive)	39.1 µM (inactive)	21.1 µM (inactive)	30.1 µM (inactive)	16.7 µM	–
COc1cc2cnc3c4cc(O)ccc4ccc3c2cc1OC	56.6 µM (inactive)	26.4 µM (inactive)	–	–	> 100 µM (inactive)	92.7 µM (inactive)	> 100 µM (inactive)	30.7 µM (inactive)	51.4 µM (inactive)	> 100 µM (inactive)	22.6 µM (inactive)	46.5 µM (inactive)	15.6 µM (inactive)	34.2 µM (inactive)	63 µM (inactive)	91 µM (inactive)	–	> 100 µM (inactive)	> 100 µM	45.7 µM (inactive)
Cc1cc(=O)oc2cc(OCc3c(F)cccc3Cl)ccc12	78.5 µM (inactive)	33.3 µM (inactive)	4.07 µM (inactive)	> 100 µM (inactive)	> 100 µM (inactive)	17.5 µM (inactive)	3.66 µM (inactive)	20.9 µM (inactive)	1.99 µM (inactive)	> 100 µM (inactive)	9.02 µM (inactive)	7.23 µM (inactive)	11.1 µM (inactive)	–	11.9 µM (inactive)	–	–	–	–	> 100 µM (inactive)
Cc1nc2c(C)ccc([N+](=O)[O-])c2c(NCCCN(C)C)c1C	23.3 µM (inactive)	67.1 µM (inactive)	–	> 100 µM (inactive)	> 47.1 µM (inactive)	38.4 µM (inactive)	14.2 µM (inactive)	> 100 µM (inactive)	> 100 µM (inactive)	> 72.1 µM (inactive)	> 65.3 µM (inactive)	58.7 µM (inactive)	26.9 µM (inactive)	38.3 µM (inactive)	> 76.9 µM (inactive)	27.4 µM (inactive)	> 100 µM (inactive)	57 µM (inactive)	> 39.4 µM	> 75.9 µM (inactive)
COP(=O)(OC)C(O)/C=C/c1ccco1 (stereo unspecified)	> 100 µM (inactive)	> 100 µM (inactive)	–	> 100 µM (inactive)	> 100 µM (inactive)	> 100 µM (inactive)	> 100 µM (inactive)	> 100 µM (inactive)	> 100 µM (inactive)	> 100 µM (inactive)	–	> 100 µM (inactive)	> 100 µM (inactive)	> 100 µM (inactive)	–	–	> 100 µM (inactive)	–	> 100 µM	> 100 µM (inactive)
O=C(/N=N/c1ccc(Cl)cc1Cl)NNc1ccc(Cl)cc1Cl	19.6 µM (inactive)	19 µM (inactive)	20.7 µM (inactive)	14.7 µM (inactive)	18.2 µM (inactive)	–	14.9 µM (inactive)	28.6 µM (inactive)	–	19.3 µM (inactive)	31.6 µM (inactive)	–	19.1 µM (inactive)	23.2 µM (inactive)	–	11.4 µM (inactive)	–	16.4 µM (inactive)	19.6 µM	17.1 µM (inactive)

Source: ChEMBL document CHEMBL1201862, “PubChem BioAssay data set” (2004)
